Results taken from patent US7612225B2, “Crystal of triterpene derivative” (Shionogi & Co., Ltd., priority 2004, dated 2009).

Legend:
[1] = Storage stability (40° C., 75% RH, 6 months; HPLC); assay type: physicochemical
Procedure: The form I dry crystals and the form II crystals of Compound (I) were used as samples. About 3 g of each of the samples was placed in a double polyethylene bag, and the bag containing the sample was stored in an aluminum can at 40° C. and 75% RH. After storage for 6 months, the amount of Compound (I) and the total amount of related substances of Compound (I) were measured by HPLC.

[2] = Stability against light (30±2° C., 1,200,000 or 3,600,000 Lux·hr; HPLC); assay type: physicochemical; conditions: for change of total amount of related substances of Compound (I) (in words): after storage under light of 1,200,000 or 3,600,000 Lux·hr
Procedure: The form I dry crystals and the form II crystals of Compound (I) were used as samples. About 3 g of each of the samples was placed in each petri dish, and was then stored at an average temperature of 30±2° C. under light of 1,200,000 Lux·hr or 3,600,000 Lux·hr. After storage, the amount of Compound (I) and the total amount of related substances of Compound (I) were measured by HPLC.

[3] = 6 months at 40° C. and 75% RH, double polyethylene bag in aluminum can
[4] = 1,200,000 Lux·hr, 30±2° C., petri dish

| Compound | Amount of analogue B ([1]; 6 months at 40° C. and 75% RH) [%] | Total amount of related substances(%) ([1]; 6 months at 40° C. and 75% RH) | storage stability (in words) ([1]; 6 months at 40° C. and 75% RH) | Amount of Compound (I)(%) [1, 3] [%] | Amount of Compound (I)(%) ([1]; Initial value) | Amount of analogue B ([1]; Initial value) [%] | Total amount of related substances(%) ([1]; Initial value) | change of total amount of related substances of Compound (I) (in words) ([1]; after storage for 6 months at 40° C. and 75% RH, listed as form II crystals) | Total amount of related substances(%) ([2]; 1,200,000 Lux·hr, 30±2° C.) | Amount of Compound (I)(%) [2, 4] [%] | Total amount of related substances(%) ([2]; 3,600,000 Lux·hr, 30±2° C.) | Amount of Compound (I)(%) ([2]; 3,600,000 Lux·hr, 30±2° C., petri dish) | Amount of Compound (I)(%) ([2]; Initial value) | Total amount of related substances(%) ([2]; Initial value) | change of total amount of related substances of Compound (I) (in words) ([2]; listed as form II crystals) | stability against light (in words) ([2]; light of 1,200,000 or 3,600,000 Lux·hr) | change of amount of analogue B (in words) ([1]; after storage for 6 months at 40° C. and 75% RH) | change of total amount of related substances of Compound (I) (in words) ([1]; after storage for 6 months at 40° C. and 75% RH, listed as form I dry crystals) | change of total amount of related substances of Compound (I) (in words) ([2]; listed as form I dry crystals) |
| --- | --- | --- | --- | --- | --- | --- | --- | --- | --- | --- | --- | --- | --- | --- | --- | --- | --- | --- | --- |
| CC1(C)CC[C@]2(C(=O)O)CC[C@]3(COC(=O)/C=C/c4cc(O)ccc4NC(=O)/C=C/C(=O)O)C(=CCC4[C@@]5(C)CCC(=O)C(C)(C)C5CC[C@]43C)C2C1 (some centres unmarked) [Form II crystal] | <0.05 | 0.17 | stable | 98.6 | 98.9 | <0.05 | 0.21 | hardly changed | 0.17 | 99.4 | 0.18 | 99.3 | 100.3 | 0.15 | hardly changed | stable against light | – | – | – |
| CC1(C)CC[C@]2(C(=O)O)CC[C@]3(COC(=O)/C=C/c4cc(O)ccc4NC(=O)/C=C/C(=O)O)C(=CCC4[C@@]5(C)CCC(=O)C(C)(C)C5CC[C@]43C)C2C1 (some centres unmarked) [Form I dry crystal, reference compound] | 0.21 | 0.43 | – | 97.8 | 99.8 | <0.05 | 0.16 | – | 0.27 | 99.2 | – | – | 99.8 | 0.16 | – | – | significantly increased | increased | increased |
